The record followed here is patent publication US20090215895A1, “Therapeutic and carrier molecules” (PEPLIN BIOLIPIDS PTY LTD, priority 2004, published 2009).

Assay [1] has as its system E-selectin. In words: Effect of lipoxygenase/cyclooxygenase inhibitors and antioxidants on suppression of E-selectin expression by β-oxa-23:4n-6. The format is cell-based, human. The conditions noted are these: HUVEC pre-treated 15 min with inhibitor, then 20 μmol/l β-oxa-23:4n-6 60 min, TNF-α 4 h. The protocol: FIG. 16 is a representation showing the effects of lipoxygenase/cyclooxygenase inhibitors and antioxidants on the modulation of E-selectin expression on HUVEC by β-oxa-23:4n-6. HUVEC were pre-treated with NDGA, baicalein, MK886, indomethacin, Vitamin E, or diluent (control) for 15 min. The cells were then further incubated with 20 μmol/l β-oxa-23:4n-6 or diluent (control) for 60 min followed by TNF-α (125 U/200 μl medium) for 4 hr and the expression of E-selectin adhesion molecule was determined. The results are expressed as % inhibition of the suppressive effect of β-oxa-23:4n-6 and represent the mean±SEM of three separate experiments each performed in quadruplicate. * p<0.01, for significant differences between pre-treatment with inhibitor and corresponding control (one-way analysis of variance followed by the Dunnett test for multiple comparisons).
Confluent second-passage HUVEC in 96-well tissue culture plates were pre-treated with 10 μmol/l NDGA (non-selective lipoxygenase inhibitor); 10 μmol/l baicalein (a specific 12-lipoxygenase inhibitor); 500 nM MK886 (an inhibitor of the 5-lipoxygenase activating protein), […] indomethacin (a cyclooxygenase inhibitor); 10 μmol/l Vitamin E (an antioxidant); or diluent (control) for 15 min. The cells were then further incubated with 20 μmol/l β-oxa-23:4n-6 or diluent (control) for 60 min followed by TNF-α (125 U) for 4 h. The expression of E-selectin adhesion molecule was determined by ELISA. While none of the inhibitors/antioxidants affected the ability of TNF to enhance E-selectin expression on HUVEC, the ability of β-oxa 23:4n-6 to suppress the action of TNF was reduced when the cells were pre-treated with either NDGA or baicalein but not with indomethacin, Vitamin E or MK886 (FIG. 16).

Assay [2] is described as follows: Formalin-induced pain test (hind paw licking time). The format is in vivo. The conditions noted are these: 30 min prior to formalin, mean of 5 animals. The method, then:
Investigations of the effects of PT2 on pain induced by phenylquinolic acid (PQ writhing) and formalin have been made. In both the PQ writhing test (FIG. 3) and the formalin algesia test (FIG. 4), PT2 administered by intraperitoneal inoculation reduced pain and compared favourably with pain reduction by aspirin (oral, 100 mg/kg). In these tests, the EPUFA was administered 30 min before the pain stimulus and effects recorded over the following 20 min.
Investigations of PT2 in the formalin-induced analgesia model looking specifically at the biphasic response have also been undertaken and are shown in Table 1. It is well documented that in this model, aspirin suppresses only pain related to the inflammatory process (15-20 mins post-administration of formalin), while morphine suppresses pain in both phases of the response (0-5 min and 15-20 min).
Compounds were administered intraperationedly (ip) 30 min prior to the administration of formalin (0.02 ml, 1% solution) via subplantar injection into the right hind paw. Reduction of the induced hind paw licking time recorded during the following 0-5 min period (Phase I response) or 15-20 min period (Phase II response) was determined. The data in Table 1 are the mean responses of 5 animals in each group.

In assay [3] the test system is HUVEC. The experiment in a line: Agonist-enhanced neutrophil adherence to HUVEC. The format is cell-based, human. The settings on record: 20 μmol/l, 1 hr pre-treatment, TNF 4 hr. The method, then: FIG. 11 is a representation showing effect of β-oxa; β-thia and natural PUFA on TNF-enhanced neutrophil adherence to HUVEC. HUVEC were pre-treated with the fatty acids (20 μmol/l) for 60 min at 37° C. before being stimulated with TNF (125 U/200 μl medium) for 4 hr at 37° C. The cells were then co-incubated with neutrophils (5×10^5 cells/well) at 37° C. for 30 min and the degree of neutrophil adherence quantitated. The results are expressed as % of control and represent the mean±SEM of three separate experiments each performed in triplicate. * p<0.05, ***p<0.001, for significant differences between pre-treatment with fatty acid and control (one-way analysis of variance followed by the Dunnett test for multiple comparisons).
Adhesion of neutrophils, prepared by the rapid-single-step method (Ferrante et al, J. Immun. Methods 36:109-117, 1980), to HUVEC isolated from umbilical cords was carried out essentially as described (Huang et al, 1997 supra).
The magnitude of the suppressive effect of -MP3 was dependent on-pre-treatment time and concentration with significant effects observed with a pre-treatment time of 1 hr and a concentration of ≧5 μmol/l.

For assay [4], the target named is T1, PKC isozyme α (Homo sapiens, UniProt P17252).
T1 construct: endogenous in cells; host or cells: HL-60
In words: PMA-induced PKC translocation in HL-60 cells (Western blot). Further details: key: +++: strong inhibition of PKC activation; −: no inhibition of PKC activation. The format is cell-based. The settings on record: 20 μM, 60 min. The protocol:
(§1) The effects of nitroanalogs of PUFAs on PKC activation were determined. Lx compounds at a concentration of 20 μM were incubated with the HL-60 cell line (final condition 10^6 cells/ml) for 60 min. PKC activation was then attempted to be induced by PMA. PKC enzyme translocation was quantitated by Western blot.

For assay [5], the target named is T2, PKC isozyme β1 (Homo sapiens, UniProt P05771).
T2 construct: endogenous in cells; host or cells: HL-60
Described as above. The format is cell-based. Further details: key: +++: strong inhibition of PKC activation; −: no inhibition of PKC activation. The settings on record: 20 μM, 60 min. The method, then: as §1

In assay [6] the target is T3, PKC isozyme β2 (Homo sapiens, UniProt P05771).
T3 construct: endogenous in cells; host or cells: HL-60
The description is as above. The format is cell-based. Further details: key: +++: strong inhibition of PKC activation; −: no inhibition of PKC activation. The settings on record: 20 μM, 60 min. The protocol:
as §1

Assay [7] deals with T4, PKC isozyme δ (Homo sapiens, UniProt Q05655).
T4 construct: endogenous in cells; host or cells: HL-60
The description is as above. The format is cell-based. Further details: key: +++: strong inhibition of PKC activation; −: no inhibition of PKC activation. The conditions noted are these: 20 μM, 60 min. The method, then:
as §1

Assay [8] addresses T5, PKC isozyme ε (Homo sapiens, UniProt Q02156).
T5 construct: endogenous in cells; host or cells: HL-60
T5 sequence (Q02156 1-737): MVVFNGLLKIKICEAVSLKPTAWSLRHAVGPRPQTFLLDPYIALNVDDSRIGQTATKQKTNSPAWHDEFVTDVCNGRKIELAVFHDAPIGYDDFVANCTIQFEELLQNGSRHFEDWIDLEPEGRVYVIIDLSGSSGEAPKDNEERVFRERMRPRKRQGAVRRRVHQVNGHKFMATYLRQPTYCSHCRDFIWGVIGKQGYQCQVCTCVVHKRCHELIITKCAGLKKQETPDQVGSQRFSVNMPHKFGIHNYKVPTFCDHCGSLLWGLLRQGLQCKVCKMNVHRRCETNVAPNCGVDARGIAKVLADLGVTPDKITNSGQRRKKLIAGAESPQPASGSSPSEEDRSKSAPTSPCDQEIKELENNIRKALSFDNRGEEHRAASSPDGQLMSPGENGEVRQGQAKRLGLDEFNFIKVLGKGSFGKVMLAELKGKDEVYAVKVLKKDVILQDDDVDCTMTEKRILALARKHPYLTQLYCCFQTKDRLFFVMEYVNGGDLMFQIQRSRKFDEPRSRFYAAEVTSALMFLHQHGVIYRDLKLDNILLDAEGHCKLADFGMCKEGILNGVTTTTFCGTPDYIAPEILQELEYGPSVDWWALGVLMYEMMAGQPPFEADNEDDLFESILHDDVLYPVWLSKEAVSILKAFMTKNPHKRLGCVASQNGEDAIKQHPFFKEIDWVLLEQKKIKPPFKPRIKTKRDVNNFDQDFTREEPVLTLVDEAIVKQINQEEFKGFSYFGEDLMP
The assay is described as above. The settings on record: 20 μM, 60 min. The format is cell-based. Further details: key: +++: strong inhibition of PKC activation; −: no inhibition of PKC activation. The protocol:
as §1

T2 sequence (P05771 whole entry): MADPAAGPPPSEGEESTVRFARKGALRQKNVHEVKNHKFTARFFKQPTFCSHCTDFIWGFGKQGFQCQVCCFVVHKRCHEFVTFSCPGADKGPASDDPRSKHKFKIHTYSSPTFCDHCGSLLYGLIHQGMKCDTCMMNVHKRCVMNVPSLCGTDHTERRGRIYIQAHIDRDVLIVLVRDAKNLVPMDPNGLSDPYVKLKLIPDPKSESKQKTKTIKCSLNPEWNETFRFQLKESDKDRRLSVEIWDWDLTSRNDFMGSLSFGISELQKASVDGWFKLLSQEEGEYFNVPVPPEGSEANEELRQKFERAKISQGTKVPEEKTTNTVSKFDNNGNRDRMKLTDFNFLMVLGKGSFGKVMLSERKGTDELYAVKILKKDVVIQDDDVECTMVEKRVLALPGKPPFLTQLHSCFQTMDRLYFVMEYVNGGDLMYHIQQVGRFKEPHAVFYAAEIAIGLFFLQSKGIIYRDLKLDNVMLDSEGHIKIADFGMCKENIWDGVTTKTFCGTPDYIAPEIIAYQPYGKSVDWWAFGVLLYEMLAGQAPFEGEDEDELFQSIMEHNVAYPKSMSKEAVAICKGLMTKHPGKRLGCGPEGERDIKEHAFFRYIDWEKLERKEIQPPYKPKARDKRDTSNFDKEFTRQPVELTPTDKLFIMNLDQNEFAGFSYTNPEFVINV
T4 sequence (Q05655 whole entry): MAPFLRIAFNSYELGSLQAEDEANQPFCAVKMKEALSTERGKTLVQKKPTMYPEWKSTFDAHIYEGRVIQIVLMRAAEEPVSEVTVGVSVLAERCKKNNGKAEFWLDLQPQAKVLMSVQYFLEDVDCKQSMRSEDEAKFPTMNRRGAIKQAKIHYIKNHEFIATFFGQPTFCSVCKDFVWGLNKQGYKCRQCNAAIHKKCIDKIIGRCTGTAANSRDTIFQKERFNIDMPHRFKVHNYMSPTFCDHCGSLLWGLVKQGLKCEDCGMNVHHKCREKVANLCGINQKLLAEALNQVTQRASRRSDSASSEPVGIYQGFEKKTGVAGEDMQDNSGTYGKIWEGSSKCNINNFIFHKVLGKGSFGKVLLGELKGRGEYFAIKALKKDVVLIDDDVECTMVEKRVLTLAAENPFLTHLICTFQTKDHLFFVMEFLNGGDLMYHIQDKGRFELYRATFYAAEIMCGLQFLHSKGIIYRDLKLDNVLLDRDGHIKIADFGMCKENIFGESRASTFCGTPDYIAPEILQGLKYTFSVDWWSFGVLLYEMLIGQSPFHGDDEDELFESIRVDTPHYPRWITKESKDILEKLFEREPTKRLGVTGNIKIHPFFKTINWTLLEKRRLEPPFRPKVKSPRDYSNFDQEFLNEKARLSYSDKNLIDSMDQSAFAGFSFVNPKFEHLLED
T3 sequence (P05771 1-673 isoform P05771-2): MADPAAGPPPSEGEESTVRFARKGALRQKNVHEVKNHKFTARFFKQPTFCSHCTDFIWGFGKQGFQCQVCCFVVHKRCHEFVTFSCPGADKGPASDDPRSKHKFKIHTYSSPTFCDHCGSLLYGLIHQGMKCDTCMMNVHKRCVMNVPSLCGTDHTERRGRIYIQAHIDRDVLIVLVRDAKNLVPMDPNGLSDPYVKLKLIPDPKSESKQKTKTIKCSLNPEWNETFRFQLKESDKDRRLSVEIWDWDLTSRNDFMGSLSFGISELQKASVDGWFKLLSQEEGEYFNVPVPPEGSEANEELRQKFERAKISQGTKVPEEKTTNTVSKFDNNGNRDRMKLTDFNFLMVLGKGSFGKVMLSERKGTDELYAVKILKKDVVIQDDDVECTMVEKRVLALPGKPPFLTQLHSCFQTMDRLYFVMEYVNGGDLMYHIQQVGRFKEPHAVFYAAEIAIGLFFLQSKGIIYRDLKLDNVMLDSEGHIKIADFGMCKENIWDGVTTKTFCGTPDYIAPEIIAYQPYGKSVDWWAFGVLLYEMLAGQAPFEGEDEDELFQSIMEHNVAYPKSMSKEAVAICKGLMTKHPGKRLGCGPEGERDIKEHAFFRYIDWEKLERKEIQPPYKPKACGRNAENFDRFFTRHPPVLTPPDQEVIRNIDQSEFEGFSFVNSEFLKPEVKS

Turning to `CC(Cc1ccc(O)c(O)c1)C(C)Cc1ccc(O)c(O)c1` (stereo not shown) [NDGA, nordihydroguairetic acid], in assay [1], the “Effect on ability of β-oxa 23:4n-6 to suppress TNF-induced E-selectin expression” value is reported as “reduced”.
For Vitamin E, the “Effect on ability of β-oxa 23:4n-6 to suppress TNF-induced E-selectin expression” value in assay [1] was “not”.
Same read-out and setting: to `CC(C)c1ccc2c(c1)c(SC(C)(C)C)c(CC(C)(C)C(=O)O)n2Cc1ccc(Cl)cc1` [MK886] belongs “not”.
Turning to `CN1CC[C@]23c4c5ccc(O)c4O[C@H]2[C@@H](O)C=C[C@H]3[C@H]1C5` [Morphine, reference compound], in assay [2] (10 mg/kg ip), the “% inhibition of pain response, Phase I (0-5 mins)” value is 85% and the “% inhibition of pain response, Phase II (15-20 mins)” value came out at 100%.
Consider `CCCCC/C=C\C/C=C\CCCCCCCC(=O)O` [18:2n-6, octadecadienoic acid, reference compound], for which, in assay [3], the “Inhibition of TNF-α-enhanced neutrophil adhesion to HUVEC” value (shortened to “Inhibition … to HUVEC”) is reported as “no significant effect”.
Regarding `CCCCC/C=C\C/C=C\C/C=C\CCCCCSCC(=O)O` [β-thia-21:3n-6], in assay [3], the “Inhibition … to HUVEC” value is reported as “inhibited their ability to be stimulated”.
The same measure, in the same setting: then `CC/C=C\C/C=C\C/C=C\CCCCCCCCSCC(=O)O` [β-thia-21:3n-3], with “inhibited their ability to be stimulated”.
As for `CCCCC/C=C\C/C=C\C/C=C\C/C=C\CCCCSCC(=O)O` [β-thia-23:4n-6], the “Inhibition … to HUVEC” value in assay [3] is reported as “inhibited their ability to be stimulated”; in assay [3] (listed as β-thia 23:4n-6), “less active than this β-oxa compound”.
Turning to `COc1ccc2c(c1)c(CC(=O)O)c(C)n2C(=O)c1ccc(Cl)cc1` [indomethacin], in assay [1], the “Effect on ability of β-oxa 23:4n-6 to suppress TNF-induced E-selectin expression” value is on record as “not”.
Regarding `CCCCC/C=C\C/C=C\C/C=C\CCCCCOCC(=O)O` [β-oxa-21:3n-6], in assay [3], the “Inhibition … to HUVEC” value is “inhibited their ability to be stimulated”.
`CCCCC/C=C\C/C=C\C/C=C\CCCCC[N+](=O)[O-]` [Lx3]: the “Inhibition of PKC activation, isozyme α” value in assay [4] is on record as “−”. Moreover, the “Inhibition of PKC activation, isozyme β1” value in assay [5] is recorded as “−”. For the same molecule, in assay [6], the “Inhibition of PKC activation, isozyme β2” value is given as “+++”. In assay [7], the “Inhibition of PKC activation, isozyme δ” value is “−”. Also, the “Inhibition of PKC activation, isozyme ε” value in assay [8] is reported as “−”.
`CCCCCCCCCCCCCCCCCC[N+](=O)[O-]` [Lx1]: the “Inhibition of PKC activation, isozyme α” value in assay [4] is reported as “−”. Further, the “Inhibition of PKC activation, isozyme β2” value in assay [6] is listed as “−”. In addition, the “Inhibition of PKC activation, isozyme δ” value in assay [7] was “−”. In assay [8], the “Inhibition of PKC activation, isozyme ε” value was “−”.
On to `CCCCC/C=C\C/C=C\C/C=C\C/C=C\CCCC[N+](=O)[O-]` [Lx4], for which, in assay [5], the “Inhibition of PKC activation, isozyme β1” value is “+++”. The “Inhibition of PKC activation, isozyme β2” value in assay [6] is given as “+++”. In assay [7], the “Inhibition of PKC activation, isozyme δ” value is reported as “+++”. Moreover, in assay [8], the “Inhibition of PKC activation, isozyme ε” value is reported as “−”.
In the case of `CC(=O)Oc1ccccc1C(=O)O` [Aspirin, reference compound], in assay [2] (300 mg/kg ip), the “% inhibition of pain response, Phase I (0-5 mins)” value was determined as 30% and the “% inhibition of pain response, Phase II (15-20 mins)” value is recorded as 91%.
In the case of `CC/C=C\C/C=C\C/C=C\CCCCCCCC[N+](=O)[O-]` [Lx2], the “Inhibition of PKC activation, isozyme α” value in assay [4] is listed as “−”. In assay [5], the “Inhibition of PKC activation, isozyme β1” value is on record as “−”. Further, in assay [6], the “Inhibition of PKC activation, isozyme β2” value is listed as “+++”. For the same molecule, in assay [7], the “Inhibition of PKC activation, isozyme δ” value is recorded as “−”. In addition, the “Inhibition of PKC activation, isozyme ε” value in assay [8] is on record as “−”.
For the molecule `CC/C=C\C/C=C\C/C=C\C/C=C\C/C=C\C/C=C\CCC[N+](=O)[O-]` [Lx5], the “Inhibition of PKC activation, isozyme α” value in assay [4] is “−”. The “Inhibition of PKC activation, isozyme β1” value in assay [5] is on record as “−”. Also, the “Inhibition of PKC activation, isozyme β2” value in assay [6] is recorded as “−”. Moreover, the “Inhibition of PKC activation, isozyme δ” value in assay [7] is on record as “−”.
`O=c1cc(-c2ccccc2)oc2cc(O)c(O)c(O)c12` [baicalein]: in assay [1], the “Effect on ability of β-oxa 23:4n-6 to suppress TNF-induced E-selectin expression” value is on record as “reduced”.
